# Earlier results, collected in patent US20030134846A1, “Treatment of trypanosoma brucei with farnesyl protein transferase inhibitors” (Schering Corporation, priority 2001, published 2003).
# Details: patients treated for second stage infection; can lead to death
smiles,measurement,value
Nc1nc(N)nc(Nc2ccc([As]3SCC(CO)S3)cc2)n1 (stereo not shown) [melarsoprol],"reactive encephalopathy, occurrence in patients",5-10%
